Test results taken from PubChem BioAssay (NCI).
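Briefly, cells in 96-well plates were exposed to five compound concentrations for 48 h, and endpoints were estimated by linear interpolation. TGI: concentration producing complete growth inhibition.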

Columns and labels:
Assay in all cases: NCI tumour cell line growth inhibition, 48 h
[1] = tested on: 786-0 renal
[2] = tested on: A498 renal
[3] = tested on: A549 NSCLC
[4] = tested on: ACHN renal
[5] = tested on: BT-549 breast
[6] = tested on: CAKI-1 renal
[7] = tested on: CCRF-CEM leukemia
[8] = tested on: COLO 205 colon
[9] = tested on: DU-145 prostate
[10] = tested on: EKVX NSCLC
[11] = tested on: HCC-2998 colon
[12] = tested on: HCT-116 colon
[13] = tested on: HCT-15 colon
[14] = tested on: HOP-62 NSCLC
[15] = tested on: HOP-92 NSCLC
[16] = tested on: HS 578T breast
[17] = tested on: IGROV1 ovarian
[18] = tested on: K-562 leukemia
[19] = tested on: KM12 colon
[20] = tested on: LOX IMVI melanoma
[21] = tested on: M14 melanoma
[22] = tested on: MALME-3M melanoma
[23] = tested on: MCF7 breast
[24] = tested on: MDA-MB-231 breast
[25] = tested on: MDA-MB-435
[26] = tested on: MDA-N
[27] = tested on: MOLT-4 leukemia
[28] = tested on: NCI-H226 lung
[29] = tested on: NCI-H23 lung
[30] = tested on: NCI-H460 lung
[31] = tested on: NCI-H522 lung
[32] = tested on: NCI/ADR-RES ovarian
[33] = tested on: OVCAR-3 ovarian
[34] = tested on: OVCAR-4 ovarian
[35] = tested on: OVCAR-5 ovarian
[36] = tested on: OVCAR-8 ovarian
[37] = tested on: PC-3 prostate
[38] = tested on: RPMI-8226 leukemia
[39] = tested on: RXF 393 renal
[40] = tested on: SF-268 CNS
[41] = tested on: SF-295 CNS
[42] = tested on: SF-539 CNS
[43] = tested on: SK-MEL-2 melanoma
[44] = tested on: SK-MEL-28 melanoma
[45] = tested on: SK-MEL-5 melanoma
[46] = tested on: SK-OV-3 ovarian
[47] = tested on: SN12C renal
[48] = tested on: SNB-19 CNS
[49] = tested on: SNB-75 CNS
[50] = tested on: SR leukemia
[51] = tested on: SW-620 colon
[52] = tested on: T-47D breast
[53] = tested on: TK-10 renal
[54] = tested on: U251 CNS
[55] = tested on: UACC-257 melanoma
[56] = tested on: UACC-62 melanoma
[57] = tested on: UO-31 renal
[58] = tested on: HL-60(TB) leukemia
[59] = tested on: HT29 colon

SMILES: O=c1[nH]c(=O)n(C2CC(O)C(CO)O2)c2nc3cc4ccccc4cc3nc12 (stereo not given)
- TGI [1]: > 100 µM
- TGI [2]: > 100 µM
- TGI [3]: > 100 µM
- TGI [4]: > 100 µM
- TGI [5]: > 100 µM
- TGI [6]: > 100 µM
- TGI [7]: > 100 µM
- TGI [8]: > 100 µM
- TGI [9]: > 100 µM
- TGI [10]: > 100 µM
- TGI [11]: > 100 µM
- TGI [12]: > 100 µM
- TGI [13]: > 100 µM
- TGI [14]: > 100 µM
- TGI [15]: > 100 µM
- TGI [16]: > 100 µM
- TGI [17]: > 100 µM
- TGI [18]: > 100 µM
- TGI [19]: > 100 µM
- TGI [20]: > 100 µM
- TGI [21]: > 100 µM
- TGI [22]: > 100 µM
- TGI [23]: > 100 µM
- TGI [24]: > 100 µM
- TGI [25]: > 100 µM
- TGI [26]: > 100 µM
- TGI [27]: > 100 µM
- TGI [28]: > 100 µM
- TGI [29]: > 100 µM
- TGI [30]: > 100 µM
- TGI [31]: > 100 µM
- TGI [32]: > 100 µM
- TGI [33]: > 100 µM
- TGI [34]: > 100 µM
- TGI [35]: > 100 µM
- TGI [36]: > 100 µM
- TGI [37]: > 100 µM
- TGI [38]: > 100 µM
- TGI [39]: > 100 µM
- TGI [40]: > 100 µM
- TGI [41]: > 100 µM
- TGI [42]: > 100 µM
- TGI [43]: > 100 µM
- TGI [44]: > 100 µM
- TGI [45]: > 100 µM
- TGI [46]: > 100 µM
- TGI [47]: > 100 µM
- TGI [48]: > 100 µM
- TGI [49]: > 100 µM
- TGI [50]: > 100 µM
- TGI [51]: > 100 µM
- TGI [52]: > 100 µM
- TGI [53]: > 100 µM
- TGI [54]: > 100 µM
- TGI [55]: > 100 µM
- TGI [56]: > 100 µM
- TGI [57]: > 100 µM

SMILES: O=C1/C(=C/c2cc3c(=O)c4ccccc4sc3s2)NC(=S)N1c1ccccc1
- TGI [1]: > 100 µM
- TGI [2]: > 100 µM
- TGI [4]: > 100 µM
- TGI [5]: > 100 µM
- TGI [6]: > 100 µM
- TGI [8]: > 100 µM
- TGI [9]: > 100 µM
- TGI [10]: > 100 µM
- TGI [11]: > 100 µM
- TGI [12]: > 100 µM
- TGI [13]: > 100 µM
- TGI [58]: 66.9 µM
- TGI [14]: > 100 µM
- TGI [16]: > 100 µM
- TGI [59]: > 100 µM
- TGI [17]: > 100 µM
- TGI [18]: > 100 µM
- TGI [19]: > 100 µM
- TGI [20]: > 100 µM
- TGI [22]: > 100 µM
- TGI [23]: > 100 µM
- TGI [24]: > 100 µM
- TGI [25]: > 100 µM
- TGI [26]: > 100 µM
- TGI [27]: > 100 µM
- TGI [28]: > 100 µM
- TGI [29]: > 100 µM
- TGI [30]: > 100 µM
- TGI [31]: > 100 µM
- TGI [32]: > 100 µM
- TGI [33]: > 100 µM
- TGI [34]: > 100 µM
- TGI [35]: > 100 µM
- TGI [36]: > 100 µM
- TGI [37]: > 100 µM
- TGI [38]: > 100 µM
- TGI [39]: > 100 µM
- TGI [40]: > 100 µM
- TGI [41]: > 100 µM
- TGI [43]: > 100 µM
- TGI [44]: > 100 µM
- TGI [45]: > 100 µM
- TGI [47]: > 100 µM
- TGI [48]: > 100 µM
- TGI [49]: > 100 µM
- TGI [50]: 49.6 µM
- TGI [51]: > 100 µM
- TGI [52]: > 100 µM
- TGI [53]: > 100 µM
- TGI [54]: > 100 µM
- TGI [55]: > 100 µM
- TGI [56]: > 100 µM
- TGI [57]: > 100 µM
